Laboratory results taken from PubChem BioAssay (NCI).
Values joined by “and” are separate entries in the source; they are usually repeats but may differ in a detail not shown here. Identical values can stand only once.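 48-hour exposure; five concentrations; linearly interpolated endpoints. GI50 = concentration required for 50% inhibition of growth. TGI: total growth inhibition.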

How the values were obtained:
Assay in all cases: growth of human tumour cells (NCI), 48 h
A549 NSCLC = system: A549 NSCLC
EKVX NSCLC = system: EKVX NSCLC
LOX IMVI melanoma = system: LOX IMVI melanoma
M14 melanoma = system: M14 melanoma
OVCAR-5 ovarian = system: OVCAR-5 ovarian
SF-539 CNS = system: SF-539 CNS
SNB-75 CNS = system: SNB-75 CNS
SW-620 colon = system: SW-620 colon
T-47D breast = system: T-47D breast
UO-31 renal = system: UO-31 renal

Structure (SMILES)	GI50 (A549 NSCLC)	TGI (A549 NSCLC)	GI50 (EKVX NSCLC)	TGI (EKVX NSCLC)	GI50 (LOX IMVI melanoma)	TGI (LOX IMVI melanoma)	GI50 (M14 melanoma)	TGI (M14 melanoma)	GI50 (OVCAR-5 ovarian)	TGI (OVCAR-5 ovarian)	GI50 (SF-539 CNS)	TGI (SF-539 CNS)	GI50 (SNB-75 CNS)	TGI (SNB-75 CNS)	GI50 (SW-620 colon)	TGI (SW-620 colon)	GI50 (T-47D breast)	TGI (T-47D breast)	GI50 (UO-31 renal)	TGI (UO-31 renal)
COc1cccc2c1nc1cccc(OC)c1[n+]2[O-]	7.8 µM	38.9 µM	13.7 µM	30.9 µM	4.23 µM	18.4 µM	3.47 µM	16.2 µM	27.8 µM	93 µM	3.91 µM	17.3 µM	2.49 µM	14.5 µM	3 µM	15.9 µM	1.7 µM	9.26 µM	3.07 µM	15.6 µM
COc1cc2cn3c4ccc(O)cc4nc(N)c3c2cc1OC	0.839 µM	12.9 µM	2.79 µM	15.4 µM	0.0621 µM	1.79 µM	0.167 µM	8.33 µM	2.6 µM	14.1 µM	0.2 µM	2.39 µM	0.0886 µM	7.49 µM	0.119 µM	16 µM	0.435 µM	16.4 µM	0.235 µM	2.48 µM
COc1cc(-c2nc3ccccc3[nH]2)ccc1OCC(=O)N=Nc1c(O)[nH]c2ccc(Cl)cc12	3.72 µM	> 100 µM	4.94 µM	> 100 µM	0.337 µM	1.24 µM	1.67 µM	3.65 µM	1.97 µM	4.82 µM	1.69 µM	3.1 µM	1.19 µM	2.64 µM	0.748 µM	2.42 µM	1.66 µM	3.75 µM	52.3 µM	> 100 µM
Cc1cc(O)c(C2=NN(c3ccc(S(N)(=O)=O)cc3)C(c3ccccc3O)C2)cc1Cl (stereo not drawn)	2.67 µM	7.85 µM	1.96 µM	6.52 µM	1.63 µM	3.03 µM	1.75 µM	3.39 µM	1.7 µM	3.61 µM	1.61 µM	3.04 µM	1.54 µM	8.64 µM	1.7 µM	3.39 µM	2.61 µM	11.3 µM	0.181 µM	5.65 µM
COc1cc([N+](=O)[O-])c(S(=O)(=O)O)cc1N		> 100 µM		> 100 µM		> 100 µM		> 100 µM		> 100 µM		> 100 µM		> 100 µM		> 100 µM		> 100 µM		> 100 µM
C[n+]1c2cc(N)ccc2cc2ccc(N)cc21 (tested in a mixture with another compound)	0.0749 µM	10.1 µM	0.261 µM	1.77 µM	0.307 µM	1.46 µM	1.04 µM	5.21 µM	0.405 µM	11.1 µM	0.498 µM	6.22 µM	0.314 µM	1.38 µM	0.0791 µM	6.2 µM	0.33 µM	3.02 µM	0.106 µM	0.598 µM
CCc1nc(-n2c(CC)nc3ccccc3c2=O)nc(N)c1-c1ccc(Cl)cc1	2.38 µM	> 100 µM	99 µM	> 100 µM	6.91 µM	> 100 µM	52.6 µM	> 100 µM	30.9 µM	> 100 µM	30.4 µM	> 100 µM	> 100 µM	> 100 µM	5.42 µM	> 100 µM	> 60.4 µM	> 100 µM	23.7 µM	> 100 µM
Clc1nc(Cl)c2ncn(C/C=C/Cn3cnc4c(Cl)nc(Cl)nc43)c2n1	13.2 µM	32 µM	20.5 µM	36.9 µM	14.9 µM	28.9 µM	21.2 µM	39.7 µM	19.5 µM	35.1 µM	21.3 µM	41 µM	19.1 µM	44 µM	8.72 µM	22.5 µM	11.2 µM	32 µM	17.9 µM	34.5 µM
CCN1CCC2(CC1)NC(=O)c1c(c3ccc(Cl)c(Cl)c3n1C)C2C#N (stereo not drawn)	3.13 µM	13.5 µM	3.4 µM	17.8 µM	1.65 µM	3.34 µM	1.62 µM	3.1 µM	1.98 µM	5.79 µM	1.89 µM	4.52 µM	1.75 µM	4.64 µM	1.94 µM	3.77 µM	3.09 µM	13.7 µM	1.84 µM	5.03 µM
Cc1c2cnccc2c(C)c2c1c1cc(C(=O)O)ccc1n2C	1.68 µM	6.68 µM	1.53 µM	5.74 µM	0.579 µM	4.18 µM	1.3 µM	3.74 µM	1.91 µM	9.52 µM	1.01 µM	3.27 µM	1.1 µM	2.53 µM	0.49 µM	6.7 µM	1.51 µM	> 26.5 µM	0.49 µM	4.21 µM
O=C(Nc1ccc(Cl)cc1F)c1cc(F)ccc1O	2.79 µM	> 45.8 µM	1.88 µM	9.97 µM	0.522 µM	5.31 µM	1.11 µM	5.44 µM	3.26 µM	23 µM	0.845 µM	7.58 µM	0.39 µM	6.16 µM	1.46 µM	23.6 µM	0.904 µM	> 23.5 µM	0.314 µM	3.38 µM
COc1ccc2[nH]c3c(C)c4cc[n+](C)cc4c(C)c3c2c1			0.63 µM		3.98 µM and 3.32 µM	37 µM [middle of 4 runs]	16.1 µM and 12.9 µM and 2.33 µM	85.3 µM and 29.8 µM	2.32 µM and 3.07 µM			1.65 µM and 1.46 µM and 1.32 µM	0.158 µM and 0.324 µM	801 nM [middle of 4 runs]	0.28 µM		0.88 µM and 0.257 µM and 1.03 µM	12.6 µM and 3.63 µM and 11.2 µM	13.6 µM and 15.6 µM	
